# Reference: patent US20230194530A1, “CIRCULATING CARDIOVASCULAR BIOMARKERS AND VASCULAR STABILIZING THERAPY” (priority 2021, published 2023)
# Tested on: VE-cadherin and Claudin-5 in pHUVECs
# Assay: Immunofluorescence of VE-cadherin and Claudin-5 junctional staining in pHUVECs treated with COVID-19 patient plasma
# Assay type: cell-based, human
# Conditions: co-treatment with moderate or severe COVID-19 plasma, six hours
substance,measurement,value
Nangibotide,"disruption of the EC barrier, as examined through junctional protein expression (VE-cadherin, Claudin-5)",could maintain junctional protein expression
